Source: patent US9850283B2, “Macrocyclic inhibitors of the PD-1/PD-L1 and CD80(B7-1)/PD-L1 protein/protein interactions” (BRISTOL-MYERS SQUIBB COMPANY, priority 2013, dated 2017)
Read-outs that look alike come from different tables or passages of the source. Positions of bridges follow the written chain, without caps; N, C: chain ends. Non-standard residues stand in square brackets, D forms with d. Residues, ends and D or L forms follow the SMILES beside them. ξ: configuration not given here. Phe(3,4,5-F3) = N[C@@H](Cc1cc(F)c(F)c(F)c1)C(=O)O; Phe(4-CN) = N#Cc1ccc(C[C@H](N)C(=O)O)cc1; Pro(4R-NH2) = N[C@H]1CN[C@H](C(=O)O)C1; d(cisHyp) = O=C(O)[C@H]1C[C@@H](O)CN1; Bta = N[C@@H](Cc1csc2ccccc12)C(=O)O; Hyp = O=C(O)[C@@H]1C[C@@H](O)CN1; NMeF = CN[C@@H](Cc1ccccc1)C(=O)O; hPhe = N[C@@H](CCc1ccccc1)C(=O)O; dNMeE = CN[C@H](CCC(=O)O)C(=O)O; Ile(3ξ) = CCC(C)[C@H](N)C(=O)O; dNMeNle = CCCC[C@@H](NC)C(=O)O; NMeNle = CCCC[C@H](NC)C(=O)O; NMeA = CN[C@@H](C)C(=O)O; Orn = NCCC[C@H](N)C(=O)O; dDap = NC[C@@H](N)C(=O)O; Dab = NCC[C@H](N)C(=O)O; Dap = NC[C@H](N)C(=O)O; ξP = O=C(O)C1CCCN1; Sar = CNCC(=O)O

Key:
Human PD-L1/PD-1 = target: T1, Human PD-L1/PD-1 (Homo sapiens, UniProt Q9NZQ7); experiment: HTRF PD-1-Ig/PD-L1-His binding assay (human PD-L1); conditions: cluster symbol; read-out: HTRF IC50 cluster
T1 construct: made in house; host or cells: HEK293T
T1 sequence (Q9NZQ7 with tags, fused parts or gaps): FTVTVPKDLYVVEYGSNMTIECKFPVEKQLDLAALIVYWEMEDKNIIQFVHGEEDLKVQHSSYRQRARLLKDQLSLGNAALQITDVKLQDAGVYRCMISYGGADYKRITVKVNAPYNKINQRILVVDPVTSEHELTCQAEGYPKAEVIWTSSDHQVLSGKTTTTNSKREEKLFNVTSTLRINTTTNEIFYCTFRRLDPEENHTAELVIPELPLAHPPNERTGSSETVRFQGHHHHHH
In short: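 Soluble Fc-fused PD-1 and His-tagged PD-L1 (truncated before the transmembrane region) were combined in dPBS with 0.1% (w/v) BSA and 0.05% (v/v) Tween-20. Binding was read by HTRF using europium cryptate anti-Ig antibody (1 nM final) and APC anti-His antibody (20 nM final).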

[1] = target: T2, LK35.2-hPD-L1 cells / PE-labeled PD-1-Ig (Homo sapiens, UniProt Q9NZQ7); experiment: LK35.2-hPD-L1 cell binding high-content screening assay; type: cell-based; conditions: cluster symbol, read-out: CBA IC50 cluster
T2 construct: expressed in transfected cells; host or cells: LK35.2 mouse B cell line
T2 sequence (Q9NZQ7 19-290): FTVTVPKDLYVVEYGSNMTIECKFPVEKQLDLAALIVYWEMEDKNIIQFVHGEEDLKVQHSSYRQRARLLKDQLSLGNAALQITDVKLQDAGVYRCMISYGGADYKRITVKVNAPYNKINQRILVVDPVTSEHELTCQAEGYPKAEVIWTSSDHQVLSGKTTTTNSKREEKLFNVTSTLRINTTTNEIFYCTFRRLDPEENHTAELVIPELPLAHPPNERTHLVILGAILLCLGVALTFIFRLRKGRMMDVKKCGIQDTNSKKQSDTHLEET
In short: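 Mouse LK35.2 B cells stably over-expressing human PD-L1, cultured overnight, treated with compound plus PE-labeled human PD-1-Ig (1 nM final) in RPMI/10% FCS for 1 h at 37 °C. After washing, bound fluorescence quantified by high-content imaging.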

[2] = cell line of CBA not given (LK35.2-hPD-L1 or 293T-hPD-L1)
[3] = cell binding assay, cell line not given

| Structure (SMILES) | IC50 (Human PD-L1/PD-1) [nM] | IC50 [1, 2] [nM] | IC50 [1, 3] [nM] |
| --- | --- | --- | --- |
| CCCC[C@H]1C(=O)N(C)[C@@H](CCCC)C(=O)N[C@@H](CCCNC(=N)N)C(=O)N[C@H](C(=O)NCC(N)=O)CSCC(=O)N[C@@H](Cc2ccccc2)C(=O)N(C)[C@@H](C)C(=O)N[C@@H](CC(N)=O)C(=O)N2CCC[C@H]2C(=O)N[C@@H](Cc2cnc[nH]2)C(=O)N[C@@H](CC(C)C)C(=O)N(C)CC(=O)N[C@@H](Cc2c[nH]c3ccccc23)C(=O)N[C@@H](CCCCN)C(=O)N[C@@H](Cc2c[nH]c3ccccc23)C(=O)N1C [Example 1069] ({CH2CO}-F[NMeA]NPHL[Sar]WKW[NMeNle][NMeNle]RCG-NH2; thioether N-14) | 0.385 to 6.74 | 4.78 to 72.9 |  |
| CCCC[C@H]1C(=O)N(C)CC(=O)N[C@@H](CN)C(=O)N[C@@H](C(C)C)C(=O)N(C)[C@@H](Cc2ccccc2)C(=O)N[C@@H](Cc2ccc(O)cc2)C(=O)N(C)CC(=O)N[C@@H](Cc2c[nH]c3ccccc23)C(=O)N[C@@H](Cc2ccc(O)cc2)C(=O)N[C@@H](CC(C)C)C(=O)N[C@H](C(=O)NCC(N)=O)CSCC(=O)N[C@@H](Cc2ccccc2)C(=O)N(C)[C@@H](Cc2ccccc2)C(=O)N1C [Example 3152] ({CH2CO}-F[NMeF][NMeNle][Sar][Dap]V[NMeF]Y[Sar]WYLCG-NH2; thioether N-13) | 6.76 to 30.3 | 4.78 to 72.9 |  |
| CCCC[C@H]1C(=O)N(C)CC(=O)N[C@@H](CC(=O)O)C(=O)N[C@@H](C(C)C)C(=O)N(C)[C@@H](Cc2ccccc2)C(=O)N[C@@H](Cc2ccc(O)cc2)C(=O)N(C)CC(=O)N[C@@H](Cc2c[nH]c3ccccc23)C(=O)N[C@@H](Cc2ccc(O)cc2)C(=O)N2CCC[C@H]2C(=O)N[C@H](C(=O)NCC(N)=O)CSCC(=O)N[C@@H](Cc2ccccc2)C(=O)N(C)[C@@H](Cc2ccccc2)C(=O)N1C [Example 3561] (HELM PEPTIDE1{[O=C(C[*:3])[*:2]].F.[meF].[CCCC[C@@H](C(=O)[*:2])N(C)[*:1]].[Sar].D.V.[meF].Y.[Sar].W.Y.P.C.G.[am]}$PEPTIDE1,PEPTIDE1,1:R3-14:R3$$$V2.0) | > 30.5 |  | > 74.3 |
| CCCC[C@H]1C(=O)N(C)[C@@H](CCCC)C(=O)N[C@@H](CCCNC(=N)N)C(=O)N[C@H](C(=O)NCC(N)=O)CSCC(=O)N[C@@H](Cc2ccc(O)cc2)C(=O)N(C)[C@@H](C)C(=O)N[C@@H](CC(N)=O)C(=O)N2CCC[C@H]2C(=O)N[C@@H](CN)C(=O)N[C@@H](CC(C)C)C(=O)N2C[C@H](O)C[C@H]2C(=O)N[C@@H](Cc2c[nH]c3ccccc23)C(=O)N[C@@H](CC(C)C)C(=O)N[C@@H](Cc2c[nH]c3ccccc23)C(=O)N1C [Example 6034] ({CH2CO}-Y[NMeA]NP[Dap]L[Hyp]WLW[NMeNle][NMeNle]RCG-NH2; thioether N-14) | 0.385 to 6.74 |  | 0.158 to 4.71 |
| CCCC[C@H]1C(=O)N(C)[C@@H](CCCC)C(=O)N[C@@H](CCCNC(=N)N)C(=O)N[C@H](C(=O)NCC(N)=O)CSCC(=O)N[C@@H](Cc2ccccc2)C(=O)N(C)[C@@H](C)C(=O)N[C@@H](CC(N)=O)C(=O)N2CCC[C@H]2C(=O)N[C@@H](Cc2cnc[nH]2)C(=O)N[C@@H](C(C)CC)C(=O)N(C)CC(=O)N[C@@H](Cc2c[nH]c3ccccc23)C(=O)N[C@@H](CO)C(=O)N[C@@H](Cc2c[nH]c3ccccc23)C(=O)N1C (stereo partly shown) [Example 6011] ({CH2CO}-F[NMeA]NPH[Ile(3ξ)][Sar]WSW[NMeNle][NMeNle]RCG-NH2; thioether N-14) | 6.76 to 30.3 |  | 4.78 to 72.9 |
| CCCC[C@H]1C(=O)N(C)[C@@H](CCCC)C(=O)N[C@@H](CCCNC(=N)N)C(=O)N[C@H](C(=O)NCC(N)=O)C/C=C/C(=O)N[C@@H](Cc2ccc(O)cc2)C(=O)N(C)[C@@H](C)C(=O)N[C@@H](CC(N)=O)C(=O)N2CCCC2C(=O)N[C@@H](Cc2cnc[nH]2)C(=O)N[C@@H](CC(C)C)C(=O)N2CCC[C@H]2C(=O)N[C@@H](Cc2c[nH]c3ccccc23)C(=O)N[C@@H](CO)C(=O)N[C@@H](Cc2c[nH]c3ccccc23)C(=O)N1C (stereo partly shown) [Example 7012] | > 30.5 |  | > 74.3 |
| CCCC[C@H]1C(=O)N(C)[C@@H](CCCC)C(=O)N[C@@H](CCCNC(=N)N)C(=O)N[C@H](C(=O)NCC(N)=O)CSCC(=O)N[C@@H](Cc2ccc(O)cc2)C(=O)N(C)[C@@H](C)C(=O)N[C@@H](CCN)C(=O)N2CCC[C@H]2C(=O)N[C@@H](Cc2c[nH]cn2)C(=O)N[C@@H](CCC(=O)O)C(=O)N2C[C@H](O)C[C@H]2C(=O)N[C@@H](Cc2c[nH]c3ccccc23)C(=O)N[C@@H](CCN)C(=O)N[C@@H](Cc2c[nH]c3ccccc23)C(=O)N1C [Example 5086] ({CH2CO}-Y[NMeA][Dab]PHE[Hyp]W[Dab]W[NMeNle][NMeNle]RCG-NH2; thioether N-14) | 0.385 to 6.74 |  | 4.78 to 72.9 |
| CCCC[C@H]1C(=O)N[C@H](CCC(=O)O)C(=O)N[C@@H](CC(=O)O)C(=O)N[C@@H](C(C)C)C(=O)N(C)[C@@H](Cc2ccccc2)C(=O)N[C@@H](Cc2ccc(O)cc2)C(=O)N(C)CC(=O)N[C@@H](Cc2c[nH]c3ccccc23)C(=O)N[C@@H](Cc2ccc(O)cc2)C(=O)N[C@@H](CC(C)C)C(=O)N[C@H](C(=O)NCC(N)=O)CSCC(=O)N[C@@H](Cc2ccccc2)C(=O)N(C)[C@@H](Cc2ccccc2)C(=O)N1C [Example 3527] (HELM PEPTIDE1{[O=C(C[*:3])[*:2]].F.[meF].[CCCC[C@@H](C(=O)[*:2])N(C)[*:1]].[dE].D.V.[meF].Y.[Sar].W.Y.L.C.G.[am]}$PEPTIDE1,PEPTIDE1,1:R3-14:R3$$$V2.0) | 6.76 to 30.3 |  | 4.78 to 72.9 |
| CCCC[C@H]1C(=O)N(C)CC(=O)N[C@@H](CC(=O)O)C(=O)N[C@@H](C(C)C)C(=O)N(C)[C@@H](Cc2ccccc2)C(=O)N[C@@H](Cc2ccc(O)cc2)C(=O)N(C)CC(=O)N[C@@H](Cc2c[nH]c3ccccc23)C(=O)N[C@@H](Cc2ccc(O)cc2)C(=O)N[C@@H](CC(C)C)C(=O)N[C@H](C(=O)NCC(N)=O)CSCC(=O)N[C@@H](CCc2ccccc2)C(=O)N(C)[C@@H](Cc2ccccc2)C(=O)N1C [Example 3082] ({CH2CO}-[hPhe][NMeF][NMeNle][Sar]DV[NMeF]Y[Sar]WYLCG-NH2; thioether N-13) | > 30.5 | > 74.3 |  |
| CCCC[C@H]1C(=O)N(C)[C@@H](CCCC)C(=O)N[C@@H](CCCNC(=N)N)C(=O)N[C@H](C(=O)NCC(=O)N[C@@H](C)C(N)=O)CSCC(=O)N[C@@H](Cc2ccc(O)cc2)C(=O)N(C)[C@@H](C)C(=O)N[C@@H](CC(N)=O)C(=O)N2CCC[C@H]2C(=O)N[C@@H](Cc2cnc[nH]2)C(=O)N[C@@H](CC(C)C)C(=O)N2C[C@H](O)C[C@H]2C(=O)N[C@@H](Cc2c[nH]c3ccccc23)C(=O)N[C@@H](CO)C(=O)N[C@@H](Cc2c[nH]c3ccccc23)C(=O)N1C [Example 6019] ({CH2CO}-Y[NMeA]NPHL[Hyp]WSW[NMeNle][NMeNle]RCGA-NH2; thioether N-14) | 0.385 to 6.74 |  | 0.158 to 4.71 |
| CCCC[C@H]1C(=O)N2C[C@H](O)C[C@@H]2C(=O)N2C[C@H](N)C[C@H]2C(=O)N[C@@H](C(C)C)C(=O)N(C)[C@@H](Cc2ccccc2)C(=O)N[C@@H](Cc2ccc(O)cc2)C(=O)N(C)[C@H](CCC(=O)O)C(=O)N[C@@H](Cc2c[nH]c3ccccc23)C(=O)N[C@@H](Cc2ccc(O)cc2)C(=O)N[C@@H](CC(C)C)C(=O)N[C@H](C(=O)NCC(N)=O)CSCC(=O)N[C@@H](Cc2cc(F)c(F)c(F)c2)C(=O)N(C)[C@@H](Cc2ccccc2)C(=O)N1C [Example 3197] ({CH2CO}-[Phe(3,4,5-F3)][NMeF][NMeNle][d(cisHyp)][Pro(4R-NH2)]V[NMeF]Y[dNMeE]WYLCG-NH2; thioether N-13) | 0.385 to 6.74 | 0.158 to 4.71 |  |
| CCCC[C@@H]1C(=O)N(C)[C@H](CCCC)C(=O)N[C@@H](CN)C(=O)N[C@@H](C(=O)NCC(N)=O)CSCC(=O)N[C@@H](Cc2ccc(O)cc2)C(=O)N2CCCC2C(=O)N[C@H](CC(=O)O)C(=O)N2CCC[C@H]2C(=O)N[C@H](CN)C(=O)N[C@@H](CC(=O)O)C(=O)N2CCCC2C(=O)N[C@H](Cc2c[nH]c3ccccc23)C(=O)N[C@@H](CCN)C(=O)N[C@@H](Cc2c[nH]c3ccccc23)C(=O)N1C (stereo partly shown) [Example 1212] ({CH2CO}-Y[ξP][dD]P[dDap]D[ξP][dW][Dab]W[dNMeNle][dNMeNle][Dap][dC]G-NH2; thioether N-14) | > 30.5 | > 74.3 |  |
| CCCC[C@H]1C(=O)N(C)[C@@H](CCCC)C(=O)N[C@@H](CCCN)C(=O)N[C@H](C(=O)NCC(N)=O)CSCC(=O)N[C@@H](Cc2ccc(O)cc2)C(=O)N(C)[C@@H](C)C(=O)N[C@@H](CC(N)=O)C(=O)N2CCC[C@H]2C(=O)N[C@@H](CN)C(=O)N[C@@H](CCC(=O)O)C(=O)N2C[C@H](O)C[C@H]2C(=O)N[C@@H](Cc2c[nH]c3ccccc23)C(=O)N[C@@H](CCN)C(=O)N[C@@H](Cc2csc3ccccc23)C(=O)N1C [Example 1185] ({CH2CO}-Y[NMeA]NP[Dap]E[Hyp]W[Dab][Bta][NMeNle][NMeNle][Orn]CG-NH2; thioether N-14) | 0.385 to 6.74 | 0.158 to 4.71 |  |
| CCCC[C@H]1C(=O)N(C)[C@@H](CCCC)C(=O)N[C@@H](CCCNC(=N)N)C(=O)N[C@H](C(=O)NCC(N)=O)CSCC(=O)N[C@@H](Cc2ccc(C#N)cc2)C(=O)N(C)[C@@H](C)C(=O)N[C@@H](CC(N)=O)C(=O)N2CCC[C@H]2C(=O)N[C@@H](Cc2cnc[nH]2)C(=O)N[C@@H](CC(C)C)C(=O)N2C[C@H](O)C[C@H]2C(=O)N[C@@H](Cc2c[nH]c3ccccc23)C(=O)N[C@@H](CO)C(=O)N[C@@H](Cc2c[nH]c3ccccc23)C(=O)N1C [Example 7046] ({CH2CO}-[Phe(4-CN)][NMeA]NPHL[Hyp]WSW[NMeNle][NMeNle]RCG-NH2; thioether N-14) | 0.385 to 6.74 |  | 0.158 to 4.71 |
